The subject of series [1] is A549 Bleomycin-Induced Senescent Cells. In words: Crystal violet cell viability / IC50 assay in bleomycin-induced senescent A549 cells. The note with it: for IC50: Homo sapiens, A549. It counts as cell-based, human. Here is the method:
Navitoclax (ABT-263, Abbvie) was used as a positive control for senolysis. For chemotherapy-induced senescence we used Bleomycin (Mylan Pharmaceuticals) at 20 µM for 5 days. Alternatively, we also used 5 µM Palbociclib (MedChemExpress) for 7 days. Ionizing radiation at a dose of 10 Gy was applied to induce senescence. Doxycycline (Sigma), a stable tetracycline analogue, was used as an inducer for inducible expression systems at 1 µg/mL. Cell viability was tested by crystal violet staining as reported previously (Feoktistova et al. 2016). Both proliferative and senescent cells from different cell lines were plated at a concentration of 1,2 × 10^4 cells per well in a 96-well plate. After a 24 h incubation period, they were treated with Compound 96558 at decreasing concentrations (with DMSO as the control) and at various time points. […] After staining, the excess dye was removed, washed 3 times with water, and air dried. […] The absorbance was measured using a BioTek microplate reader equipped with Gen5 software. […] Cell viability was evaluated following the previously mentioned protocol of crystal violet staining. The IC50 calculations were performed using GraphPad Prism® software. First, we sought to validate the senolytic potential of the Candidate Compound within the same cell type and under the same conditions of senescence induction as employed during the high-throughput screening. To achieve this, we used A549 cells in which senescence was induced using bleomycin (20 µM; 5 days). Subsequently, following the confirmation of the senescent status of these cells in comparison to the proliferative control (Figure 8A), a cell viability assay was performed, employing crystal violet staining, as detailed in the Materials and Methods section. After evaluating the senolytic activity of the Candidate Compound at the same concentration used in the screening (Figure 9), we conducted further tests using a range of concentrations, from 100 µM to 0.3125 µM, in A549 tumor cells. These tests were performed both in their non-treated (proliferating) state and after the induction of senescence with Bleomycin. In addition, we also assessed the drug's ability to affect cell viability at different time points (24, 48, and 72 hours) by renewing the Compound every 24 hours.

For the next series, the system named is A549 proliferative cells. In words: Apoptosis assay (Annexin V-FITC/7-AAD flow cytometry) in proliferative A549 cells. It counts as cell-based, human. The note with it: 10 µM, 24 h. The protocol: (§1) A549 cells were resuspended into a single-cell suspension and plated at a density of 3 × 10^5 cells per well in six-well plates. After culturing for 24 h, the cells were treated with DMSO (control), the Compound, or a combination of pan-caspase inhibitor Z-VAD-FMK (Santa Cruz Biotech.) and the Compound. Following a 24 h incubation with the drugs, the cells were harvested by centrifugation at 3,000 rpm for 5 minutes and washed twice with PBS. Subsequently, the cells were resuspended in 500 µl of binding buffer. Then, 5 µl of Annexin V-FITC and 5 µl of 7-AAD (Elabscience) were used to detect the effect of Compound 96558 on cell apoptosis. The resulting samples were immediately analyzed by flow cytometry (FACScan, BD Biosciences), using the FITC channel (excitation: 488 nm and emission: 525 nm) and the 7-AAD channel (excitation: 488 nm and emission: 670 nm).
(§2) To investigate the potential mechanism of cell death by which the compound eliminates senescent cells, we analyzed apoptosis induction. For this, we conducted a flow cytometry assay to evaluate Annexin-V staining on bleomycin-induced senescent cells treated or not with our senolytic Candidate.

In series [2] the test system is U87MG glioma cell line, proliferating cells. In words: Crystal violet cell viability / IC50 assay in proliferating U87MG cells. As to conditions: Homo sapiens, U-87 MG, read-out: quantity required to eliminate at least 50% of proliferative counterparts. It counts as cell-based. The protocol: (§3) Cell viability was tested by crystal violet staining as reported previously (Feoktistova et al. 2016). Both proliferative and senescent cells from different cell lines were plated at a concentration of 1,2 × 10^4 cells per well in a 96-well plate. After a 24 h incubation period, they were treated with Compound 96558 at decreasing concentrations (with DMSO as the control) and at various time points. Subsequently, cells were washed with phosphate-buffered saline (PBS, Merck) and fixed with paraformaldehyde (Electron Microscopy Science) prepared at 2% in PBS for 15 minutes, followed by a 5 min staining process using a 0.1% crystal violet solution in Milli-Q water. After staining, the excess dye was removed, washed 3 times with water, and air dried. Captured crystal violet was solubilized in 10% acetic acid and incubated on an orbital shaker at room temperature for 10 min. The absorbance was measured using a BioTek microplate reader equipped with Gen5 software.
(§4) Cell viability was evaluated following the previously mentioned protocol of crystal violet staining. The IC50 calculations were performed using GraphPad Prism® software.
To thoroughly explore the senolytic potential of Compound 96558, we employed a different human tumor cell line, specifically the U87MG glioma cell line. […]

The subject of series [3] is U87MG cells induced into senescence with palbociclib. In words: Crystal violet cell viability / IC50 assay in palbociclib-induced senescent U87MG cells. The series is classed as cell-based, human. Here is the method: (§5) Navitoclax (ABT-263, Abbvie) was used as a positive control for senolysis. For chemotherapy-induced senescence we used Bleomycin (Mylan Pharmaceuticals) at 20 µM for 5 days. Alternatively, we also used 5 µM Palbociclib (MedChemExpress) for 7 days. Ionizing radiation at a dose of 10 Gy was applied to induce senescence. Doxycycline (Sigma), a stable tetracycline analogue, was used as an inducer for inducible expression systems at 1 µg/mL.
as §3, with “Captured crystal violet was solubilized in 10% acetic acid and incubated on an orbital shaker at room temperature for 10 min.” left out
Cell viability was evaluated following the previously mentioned protocol of crystal violet staining. […]

The subject of series [4] is Radiation-Induced senescent A549cells. In words: Crystal violet cell viability / IC50 assay in ionizing radiation-induced senescent A549 cells. The series is classed as cell-based, human. As to conditions: for concentration showing enhanced efficacy (greater cytotoxic effect on senescent cells than proliferating): ionizing radiation 10 Gy. Here is the method:
as §5, §3, §4
Subsequently, we aimed to assess the senolytic capability of our Compound using a senescence induction method different from the previous chemotherapy-induced approach. In this regard, we exposed A549 cells to ionizing radiation, confirmed the senescent status (Figure 8B) and conducted a similar assay as described previously.

Another series relates to senescent A549 cells. In words: Apoptosis assay (Annexin V-FITC/7-AAD flow cytometry) in bleomycin-induced senescent A549 cells. The series is classed as cell-based, human. Here is the method: as §1, §2
Series [5] has as its system A549 tumor cells, non-treated (proliferating) state. In words: Crystal violet cell viability / IC50 assay in proliferative A549 cells. The series is classed as cell-based, human. The protocol:
as §3, §4
(§6) First, we sought to validate the senolytic potential of the Candidate Compound within the same cell type and under the same conditions of senescence induction as employed during the high-throughput screening. To achieve this, we used A549 cells in which senescence was induced using bleomycin (20 µM; 5 days). Subsequently, following the confirmation of the senescent status of these cells in comparison to the proliferative control (Figure 8A), a cell viability assay was performed, employing crystal violet staining, as detailed in the Materials and Methods section.
(§7) After evaluating the senolytic activity of the Candidate Compound at the same concentration used in the screening (Figure 9), we conducted further tests using a range of concentrations, from 100 µM to 0.3125 µM, in A549 tumor cells. […] In addition, we also assessed the drug's ability to affect cell viability at different time points (24, 48, and 72 hours) by renewing the Compound every 24 hours.

Assay in series [6]: as above
It counts as cell-based, human. As to conditions: human, A549 tumor cells, non-treated (proliferating); untreated (proliferative) cells, at the tested concentration. Here is the method:
as §3, §4, §6, §7

As for `C#CC(=O)NCCNc1nc(C)nc(C)c1Br` [Compound 96558], the “concentration with effective cytotoxicity in senescent cells with minimal impact on proliferative cells” value in series [1] (24 hours, bleomycin 20 µM, 5 days) is reported as “around 12.5 µM”. The “concentration effective for favorable senolytic effect” value in series [1] (48 hours, Compound renewed every 24 hours) was 6.25 µM. Further, the “most efficient concentration for senolytic effect” value in series [1] (72 hours, Compound renewed every 24 hours) is reported as 3.125 µM. For the same molecule, the “senolytic index, the ratio between the IC50 values on proliferating cells over senescent ones” value in series [1] (A549, bleomycin, 24, 48, 72 hours) is recorded as “increases with time”. The IC50 was determined as 3.73 µM in series [1] (senescent cells, 24-hour); 1.83 µM in series [1] (senescent cells, 48 hours of treatment); 1.41 µM in series [1] (senescent cells, 72 hours); 29.8 µM in series [2]; 1.79 µM in series [3] (Homo sapiens, U-87 MG, senescent cells, palbociclib-induced). The viability result in series [1] (senescent cells, low concentrations, 24, 48, and 72 hours) is given as “efficient elimination of the senescent cells”; in series [5] (proliferative cells, low concentrations, 24, 48, and 72 hours), “intact viability”. Besides, in the series with A549 proliferative cells, the apoptosis induction entry is “apoptosis was not induced”. The senolytic index in series [3] (U87MG, IC50 proliferating over senescent) came to 16.6. Also, the “concentration showing enhanced efficacy (greater cytotoxic effect on senescent cells than proliferating)” value in series [4] (24-hour) is “approximately 12.5 µM”; in series [4] (48 hours), 2500 nM; in series [4] (72 hours), 2500 nM. For the same molecule, the IC50 curves result in series [4] (senescent versus proliferative counterparts, all examined conditions) is “lower Compound concentrations are required for the eradication of senescent cells”. In the series on senescent A549 cells (Compound treatment versus DMSO, 24 h), the “apoptosis induction (FITC-Annexin V-positive and 7-AAD positive)” value is reported as “a significant proportion of cells were in late apoptosis”. Also, the “apoptosis induction (FITC-Annexin V and 7-AAD staining)” value in the series with senescent A549 cells (combination with pan-caspase inhibitor Z-VAD-FMK) is on record as “the majority of cells appeared as viable cells”. In addition, the “IC50 values observed for proliferative cells” value in series [5] (compared with senescent cells, 24, 48 and 72 hours) is “consistently higher”.

On to `CC1(C)CCC(c2ccc(Cl)cc2)=C(CN2CCN(c3ccc(C(=O)NS(=O)(=O)c4ccc(N[C@H](CCN5CCOCC5)CSc5ccccc5)c(S(=O)(=O)C(F)(F)F)c4)cc3)CC2)C1` [Navitoclax, reference compound], for which the viability result was “significantly affected” in series [1] (Bleomycin-induced senescent cells, at the tested concentration) and around 100% in series [6].
